Among the data in patent US20250136568A1, “FUSED HETEROCYCLIC COMPOUNDS AS PI3KALPHA INHIBITORS” (Nanjing Zenshine Pharmaceuticals Co., Ltd., priority 2021, published 2025) are IC50 values, retold here.

Test [1] has as its system PI3Kα H1047R mutation cell line T-47D. Kind of test: Cell Proliferation IC50 Assay (CellTiter-Glo), T-47D. It is filed as cell-based. As to conditions: Homo sapiens, T47D (H1047R), 72 hours, CellTiter-Glo, read-out: IC50 (μM) T47D. The source says:
(§1) PI3Kα H1047R mutation cell line T-47D and MDA-MB-453, E545K mutation cell line MDA-MB-361 and PI3Kα wide type cell line SK-BR-3 were purchased from Cobioer Biotech (cat. no CBP60397, CBP60386, CBP60383 and CBP60413 respectively). The CellTiter-Glo Direct Cell Proliferation Assay Kit was purchased from Prornega (cat. No. G7573)
(§2) For cell proliferation assay in each cell line: • a. Prepare complete medium (R PMI 1640, DMEM or McCoys): Add FBS and appropriate additives according to the information sheet provided by the vendor. Mix gently. • b. Prepare single cell suspension and count the cell numbers and adjust cells to appropriate density. • c. Add 80 μL of cell suspension to 96-well opaque-walled clear bottom plates according to the planned plate layout and place the plates in the CO2 incubator overnight. • d. Prepare intermediate plate: 10 μl of diluted test compounds or staurosporine solution (200×) is added to a 96 deep well plate. Then 390 μl of culture medium without FBS is added to the respective wells. • e. Transfer 20 μL of the solutions from the above intermediate plate to the wells of the plate prepared containing 80 μL of the culture medium and cells. The total dilution is 200 folds. • f. The cells were then incubated at 5% CO2, 37° C. for 72 hours. • g. Equilibrate the plate and its contents to room temperature for approximately 30 minutes. • h. Add 100 μL of CellTiter-Glo reagent to the assay plate • i. Mix contents for 10 minutes on an orbital shaker to induce cell lysis. • j. Allow the plate to incubate at room temperature for 10 minutes to stabilize luminescent signal, • k. Paste the clear bottom with white back seal and record luminescence with Varioskan LUX plate reader.
(§3) Inhibition % and IC50 value were calculated by the formula described below: […]

Test [2] deals with PI3Kα wide type cell line SK-BR-3. Kind of test: Cell Proliferation IC50 Assay (CellTiter-Glo), SK-BR-3. Format: cell-based. As to conditions: Homo sapiens; SK-BR-3 (PI3Kα wild type), 72 hours, CellTiter-Glo; read-out: IC50 (μM) SK-BR-3.
From the text: as §1, §2, §3

Like-named read-outs stand apart in the source and are kept apart here.

`COC(=O)N1CCN(c2ccc(-c3oc4c([C@H](C)Nc5ccccc5C(=O)O)cc(C)cc4c(=O)c3C)cn2)CC1` (single isomer, unassigned) [Example 155B]: the IC50 in test [1] (T47D, 72 h) was 5.06 µM; in test [2], above 10 µM.
On the same counts, the results for `Cc1cc([C@@H](C)Nc2ccccc2C(=O)O)c2oc(-c3ccc(N4CCC(N(C)C)CC4)cc3)c(C)c(=O)c2c1` [Example 161, (R)-2-((1-(2-(4-(4-(dimethylamino)piperidin-1-yl)phenyl)-3,6-dimethyl-4-oxo-4H-chromen-8-yl)ethyl)amino)benzoic acid] are 0.067 µM and 6.5 µM.
For the compound `Cc1cc(C(C)Nc2ccccc2C(=O)O)c2oc(-c3cnn(C4COC4)c3)cc(=O)c2c1` (stereo not drawn) [Example 40, 2-((1-(6-methyl-2-(1-(oxetan-3-yl)-1H-pyrazol-4-yl)-4-oxo-4H-chromen-8-yl)ethyl)amino)benzoic acid], the IC50 in test [1] (T47D, 72 h) was 2.51 µM; in test [2], above 10 µM.
For `Cc1cc(C(C)Nc2ccccc2C(=O)O)c2oc(-c3cc(F)c4nn(C)cc4c3)cc(=O)c2c1` (stereo not drawn) [Example 85, 2-((1-(2-(7-fluoro-2-methy-2H-indazol-5-yl)-6-methyl-4-oxo-4H-chromen-8-yl)ethyl)amino)benzoic acid], the IC50 is 0.13 µM in test [1] (T47D, 72 h) and above 10 µM in test [2].
With `Cc1cc([C@@H](C)Nc2ccccc2C(=O)O)c2oc(-c3ccc(CCN4CCOCC4)cc3)c(C)c(=O)c2c1` [Example 142, (R)-2-((1-(3,6-dimethyl-2-(4-(2-morpholinoethyl)phenyl)-4-oxo-4H-chromen-8-yl)ethyl)amino)benzoic acid], the IC50 in test [1] (T47D, 72 h) is 0.043 µM; in test [2], above 10 µM.
With `Cc1cc([C@@H](C)Nc2ccccc2C(=O)O)c2oc(-c3ccc(-c4cn(C)cn4)nc3)c(C)c(=O)c2c1` [Example 163], the figures for the IC50 in test [1] and in test [2] were 0.12 µM and above 10 µM, respectively.
With `Cc1cc([C@@H](C)Nc2ccccc2C(=O)O)c2oc(-c3ccc(CN4CCCC4=O)cc3)c(C)c(=O)c2c1` [Example 135, (R)-2-((1-(3,6-dimethyl-4-oxo-2-(4-((2-oxopyrrolidin-1-yl)methyl)phenyl)-4H-chromen-8-yl)ethyl)amino)benzoic acid], the IC50 in test [1] (T47D, 72 h) was 0.18 µM; in test [2], above 10 µM.
Take `Cc1cc(C(C)Nc2ccccc2C(=O)O)c2oc(-c3cc4ccncc4[nH]3)cc(=O)c2c1` (stereo not drawn) [Example 117, 2-((1-(6-methyl-4-oxo-2-(1H-pyrrolo[2,3-c]pyridin-2-yl)-4H-chromen-8-yl)ethyl)amino)benzoic acid]: the half-inhibitory concentration (IC50) in test [1] (T47D, 72 h) was 0.28 µM; in test [2] it was above 10 µM.
Consider `CC(=O)N1CCN(Cc2ccc(-c3oc4c([C@@H](C)Nc5ccccc5C(=O)O)cc(C)cc4c(=O)c3C)cc2)CC1` [Example 137, (R)-2-((1-(2-(4-((4-acetylpiperazin-1-yl)methyl)phenyl)-3,6-dimethyl-4-oxo-4H-chromen-8-yl)ethyl)amino)benzoic acid], for which the half-inhibitory concentration (IC50) in test [1] (T47D, 72 h) was 0.19 µM; in test [2], above 10 µM.
With `CC(=O)N1CCN(c2ccc(-c3oc4c(C(C)Nc5ccccc5S(N)(=O)=O)cc(C)cc4c(=O)c3C)cc2)CC1` (stereo not drawn) [Example 159, 2-((1-(2-(4-(4-acetylpiperazin-1-yl)phenyl)-3,6-dimethyl-4-oxo-4H-chromen-8-yl)ethyl)amino)benzenesulfonamide], the IC50 was 0.41 µM in test [1] (T47D, 72 h) and above 10 µM in test [2].
On the same counts, the results for `Cc1cc([C@@H](C)Nc2ccc(Cl)nc2C(=O)O)c2oc(-c3ccc(OCCN(C)C)cc3)c(C)c(=O)c2c1` [Example 165, (R)-6-chloro-3-((1-(2-(4-(2-(dimethylamino)ethoxy)phenyl)-3,6-dimethyl-4-oxo-41-1 chromen-8-yl)ethyl)amino)picolinic acid] are 0.042 µM and 4.39 µM.
With `Cc1cc(C(C)Nc2ccccc2C(=O)O)c2oc(C3=CCN(C(C)C(F)(F)F)CC3)cc(=O)c2c1` (stereo not drawn) [Example 17, 2-((1-(6-methyl-4-oxo-2-(1-(1,1,1-trifluoropropan-2-yl)-1,2,3,6-tetrahydropyridin-4-yl)-4H-chromen-8-yl)ethyl)amino)benzoic acid], the half-maximal inhibitory concentration (IC50) in test [1] (T47D, 72 h) is 2.07 µM; in test [2], above 10 µM.
Turning to `Cc1cc(C(C)Nc2ccccc2C(=O)O)c2oc(C3CCN(C(C)C(F)(F)F)CC3)cc(=O)c2c1` (stereo not drawn) [Example 16, 2-((1-(6-methyl-4-oxo-2-(1-(1,1,1-trifluoropropan-2-yl)piperidin-4-yl)-4H-chromen-8-yl)ethyl)amino)benzoic acid], the IC50 in test [1] (T47D, 72 h) is 2.56 µM; in test [2], above 10 µM.
On the same counts, the results for `Cc1cc([C@@H](C)Nc2ccccc2C(=O)O)c2oc(-c3ccc(OC4CN(C)C4)cc3)c(C)c(=O)c2c1` [Example 171, (R)-2-((1-(3,6-dimethyl-2-(4-((1-methylazetidin-3-yl)oxy)phenyl)-4-oxo-4H-chromen-8-yl)ethyl)amino)benzoic acid] are 0.072 µM and above 10 µM.
Regarding `CC(=O)N1CCN(c2ccc(-c3oc4c([C@@H](C)Nc5ccccc5C(=O)O)cc(C)cc4c(=O)c3C)nc2)CC1` [Example 115, (R)-2-((1-(2-(5-(4-acetylpiperazin-1-yl)pyridin-2-yl)-3,6-dimethyl-4-oxo-4H-chromen-8-yl)ethyl)amino)benzoic acid], the 50% inhibitory concentration (IC50) in test [1] is 0.074 µM; in test [2], 3.43 µM.
Consider `Cc1cc([C@@H](C)Nc2ccccc2C(=O)O)c2oc(-c3ccc(CN4CCN(C)CC4)nc3)c(C)c(=O)c2c1` [Example 188, (R)-2-((1-(3,6-dimethyl-2-(6-((4-methylpiperazin-1-yl)methyl)pyridin-3-yl)-4-oxo-4H-chromen-8-yl)ethyl)amino)benzoic acid], for which the IC50 is 0.13 µM in test [1] (T47D, 72 h) and above 10 µM in test [2].
Consider `Cc1cc(C(C)Nc2cccnc2C(=O)O)c2oc(-c3ccc4nn(C)cc4c3)cc(=O)c2c1` (stereo not drawn) [Example 114, 3-((1-(6-methyl-2-(2-methyl-21-indazol-5-yl)-4-oxo-4H-chromen-8-yl)ethyl)amino)picolinic acid], for which the IC50 in test [1] (T47D, 72 h) was 0.46 µM; in test [2] it was above 10 µM.
Consider `Cc1cc(C(C)Nc2ccccc2C(=O)O)c2oc(-c3ccc(N4CCC(F)(F)CC4)cc3)cc(=O)c2c1` (stereo not drawn) [Example 43, 2-((1-(2-(4-(4,4-difluoropiperidin-1-yl)phenyl)-6-methyl-4-oxo-4H-chromen-8-yl)ethyl)amino)benzoic acid], for which the half-maximal inhibitory concentration (IC50) was 0.28 µM in test [1] (T47D, 72 h) and above 10 µM in test [2].
On the same counts, the results for `CC(=O)N1CCN(C(C)c2ccc(-c3oc4c([C@@H](C)Nc5ccccc5C(=O)O)cc(C)cc4c(=O)c3C)cc2)CC1` (stereo partly drawn) [Example 138, 2-(((1R)-1-(2-(4-(1-(4-acetylpiperazin-1-yl)ethyl)phenyl)-3,6-dimethyl-4-oxo-4H-chromen-8-yl)ethyl)amino)benzoic acid] are 0.083 µM and above 10 µM.
`Cc1cc(C(C)Nc2ccccc2C(=O)O)c2oc(-c3ccccn3)cc(=O)c2c1` (stereo not drawn) [Example 31, 2-((1-(6-methyl-4-oxo-2-(pyridin-2-yl)-4H-chromen-8-yl)ethyl)amino)benzoic acid]: the IC50 in test [1] (T47D, 72 h) was 0.9 µM; in test [2] it was above 10 µM.
`Cc1cc(C(C)Nc2ccccc2C(=O)O)c2oc(-c3ccc4c(c3)CNC4=O)cc(=O)c2c1` (stereo not drawn) [Example 5, 2-((1-(6-methyl-4-oxo-2-(1-oxoisoindolin-5-yl)-4H-chromen-8-yl)ethyl)amino)benzoic acid]: the IC50 in test [1] (T47D, 72 h) is 1.54 µM; in test [2], above 10 µM.
On the same counts, the results for `Cc1cc(C(C)Nc2ccccc2C(=O)NO)c2oc(-c3ccc4nn(C)cc4c3)c(C)c(=O)c2c1` (stereo not drawn) [Example 156, 2-((1-(3,6-dimethyl-2-(2-methyl-2H-indazol-5-yl)-4-oxo-41H-chromen-8-yl)ethyl)amino)-N-hydroxybenzamide] are 0.13 µM and above 10 µM.
For `CC(=O)N1CCN(c2ccc(-c3oc4c([C@@H](C)Nc5ccccc5C(=O)O)cc(C)cc4c(=O)c3C)cn2)CC1` [Example 153, (R)-2-((1-(2-(6-(4-acetylpiperazin-1-yl)pyridin-3-yl)-3,6-dimethyl-4-oxo-4H-chromen-8-yl)ethyl)amino)benzoic acid], the IC50 in test [1] (T47D, 72 h) is 0.29 µM; in test [2], above 10 µM.
Regarding `Cc1cc(C(C)Nc2ccccc2C(=O)O)c2oc(-c3ccc(-c4cn(C)cn4)cc3)cc(=O)c2c1` (stereo not drawn) [Example 144, 2-((1-(6-methyl-2-(4-(1-methyl-1H-imidazol-4-yl)phenyl)-4-oxo-4H-chromen-8-yl)ethyl)amino)benzoic acid], the half-maximal inhibitory concentration (IC50) in test [1] (T47D, 72 h) was 0.14 µM; in test [2], above 10 µM.
